Key:
[1] = Cytotoxicity against human […] cells after 96 hrs by MTS assay; format: cell-based
[2] = Cytotoxicity against human CEM cells after 96 hrs by MTS assay; format: cell-based; conditions: CEM (CCRF-CEM) cells
[3] = Cytotoxicity against human HuH7 cells after 96 hrs by MTS assay; format: cell-based, Huh-7
Hepatitis C virus [4] = test: Antiviral activity against HCV infected in human HuH7 cells by cell-based replicon assay; format: functional, Hepacivirus hominis, Huh-7
[5] = Cytotoxicity against human HepG2 cells after 96 hrs by MTS assay; format: cell-based
Hepatitis C virus [6] = test: Antiviral activity against HCV harboring NS5B polymerase S282T mutant infected in human HuH7 cells by cell-based replicon assay; format: functional, Hepacivirus hominis, Huh-7
HepG2 [7] = test: Cytotoxicity against human HepG2 cells assessed as mitochondrial rDNA level up to 100 uM after 14 days by RT-PCR analysis; format: cell-based; conditions: hepg2, 336 h
[8] = Half life in human liver S9 fraction; format: ADME, subcellular
CCRF-CEM [9] = test: Cytotoxicity against human CEM cells assessed as mitochondrial COX2 DNA level up to 100 uM after 14 days by RT-PCR analysis; format: cell-based; conditions: 336 h
[10] = Half life in human plasma; format: ADME, cell-free
Hepatocyte = test: Increase of cellular triphosphate level in human primary hepatocytes cells at 100 uM after 24 hrs by HPLC analysis; format: functional
CCRF-CEM [11] = test: Cytotoxicity against human CEM cells assessed as mitochondrial rDNA level up to 100 uM after 14 days by RT-PCR analysis; format: cell-based; conditions: 336 h
Huh-7 = test: Increase of cellular triphosphate level in human HuH7 cells at 100 uM after 48 hrs by HPLC analysis; format: functional
HepG2 [12] = test: Cytotoxicity against human HepG2 cells assessed as mitochondrial COX2 DNA level up to 100 uM after 14 days by RT-PCR analysis; format: cell-based; conditions: hepg2, 336 h
[13] = Half life in simulated intestinal fluid; format: ADME
[14] = Half life in simulated gastrointestinal fluid; format: ADME

Structure (SMILES)	CC50 at 96 h [1]	CC50 at 96 h [2]	CC50 at 96 h [3]	EC90 (Hepatitis C virus [4]; Hepatitis C virus, Huh-7)	CC50 at 96 h [5]	other results
CCOC(=O)[C@H](C)NP(=O)(OC[C@H]1O[C@@H](n2cnc3c(O)nc(N)nc32)[C@](C)(F)[C@@H]1O)Oc1ccccc1 (stereo not given in full)	> 100 µM	> 100 µM	> 100 µM	2.38 µM	> 100 µM	
CCOC(=O)[C@H](C)NP(=O)(OC[C@H]1O[C@@H](n2cnc3c(OC)nc(N)nc32)[C@](C)(F)[C@@H]1O)Oc1ccccc1 (stereo not given in full)	65 µM	55 µM	> 100 µM	0.0074 µM	62 µM	EC90 (Hepatitis C virus [6]; Hepatitis C virus, Huh-7): 0.011 µM
CCOC(=O)[C@H](C)NP(=O)(OC[C@H]1O[C@@H](n2cnc3c(OCC)nc(N)nc32)[C@](C)(F)[C@@H]1O)Oc1ccccc1 (stereo not given in full)	68 µM	37 µM	47 µM	0.01 µM	61 µM	
CCCOc1nc(N)nc2c1ncn2[C@@H]1O[C@H](COP(=O)(N[C@@H](C)C(=O)OCC)Oc2ccccc2)[C@@H](O)[C@@]1(C)F (stereo not given in full)				0.013 µM		
CCOC(=O)[C@H](C)NP(=O)(OC[C@H]1O[C@@H](n2cnc3c(OCCOC)nc(N)nc32)[C@](C)(F)[C@@H]1O)Oc1ccccc1 (stereo not given in full)				0.02 µM		
CCOC(=O)[C@H](C)NP(=O)(OC[C@H]1O[C@@H](n2cnc3c(OCCF)nc(N)nc32)[C@](C)(F)[C@@H]1O)Oc1ccccc1 (stereo not given in full)				0.027 µM		
CCOC(=O)[C@H](C)NP(=O)(OC[C@H]1O[C@@H](n2cnc3c(SCC)nc(N)nc32)[C@](C)(F)[C@@H]1O)Oc1ccccc1 (stereo not given in full)				0.047 µM		
CCOC(=O)[C@H](C)NP(=O)(OC[C@H]1O[C@@H](n2cnc3c(N4CCC4)nc(N)nc32)[C@](C)(F)[C@@H]1O)Oc1ccccc1 (stereo not given in full)	84 µM	39 µM	84 µM	0.007 µM	75 µM	
CCOC(=O)[C@H](C)NP(=O)(OC[C@H]1O[C@@H](n2cnc3c(NC4CC4)nc(N)nc32)[C@](C)(F)[C@@H]1O)Oc1ccccc1 (stereo not given in full)	> 100 µM	45 µM	> 100 µM	0.0098 µM	> 100 µM	
CCOC(=O)[C@H](C)NP(=O)(OC[C@H]1O[C@@H](n2cnc3c(NC4CCC4)nc(N)nc32)[C@](C)(F)[C@@H]1O)Oc1ccccc1 (stereo not given in full)				0.024 µM		
CCOC(=O)[C@H](C)NP(=O)(OC[C@H]1O[C@@H](n2cnc3c(NC4CCCC4)nc(N)nc32)[C@](C)(F)[C@@H]1O)Oc1ccccc1 (stereo not given in full)				0.026 µM		
CC(C)OC(=O)[C@H](C)NP(=O)(OC[C@H]1O[C@@H](n2cnc3c(O)nc(N)nc32)[C@](C)(F)[C@@H]1O)Oc1ccccc1 (stereo not given in full)	> 100 µM	> 100 µM	> 100 µM	0.75 µM	> 100 µM	EC90 (Hepatitis C virus [6]; Hepatitis C virus, Huh-7): 0.61 µM
C[C@H](NP(=O)(OC[C@H]1O[C@@H](n2cnc3c(O)nc(N)nc32)[C@](C)(F)[C@@H]1O)Oc1ccccc1)C(=O)OC1CCCC1 (stereo not given in full)	> 100 µM	> 100 µM	> 100 µM	0.18 µM	> 100 µM	Activity (HepG2 [7]): Non-toxic; half-life [8]: 0.2 h; Activity (CCRF-CEM [9]): Non-toxic; half-life [10]: > 24 h; Activity (Hepatocyte): 0.04 mM; Activity (CCRF-CEM [11]): Non-toxic; Activity (Huh-7): 0.06 mM; EC90 (Hepatitis C virus [6]; Hepatitis C virus, Huh-7): 0.12 µM; Activity (HepG2 [12]): Non-toxic; half-life [13]: > 20 h; half-life [14]: 15 h
C[C@H](NP(=O)(OC[C@H]1O[C@@H](n2cnc3c(O)nc(N)nc32)[C@](C)(F)[C@@H]1O)Oc1ccccc1)C(=O)OC1CCCCC1 (stereo not given in full)	> 100 µM	> 100 µM	> 100 µM	0.446 µM	> 100 µM	
COC(=O)[C@H](C)NP(=O)(OC[C@H]1O[C@@H](n2cnc3c(OC)nc(N)nc32)[C@](C)(F)[C@@H]1O)Oc1ccccc1 (stereo not given in full)	> 100 µM	20 µM	> 100 µM	0.0081 µM	71 µM	
CCOc1nc(N)nc2c1ncn2[C@@H]1O[C@H](COP(=O)(N[C@@H](C)C(=O)OC)Oc2ccccc2)[C@@H](O)[C@@]1(C)F (stereo not given in full)	> 100 µM	74 µM	> 100 µM	0.016 µM	> 100 µM	EC90 (Hepatitis C virus [6]; Hepatitis C virus, Huh-7): 0.016 µM
CCOc1nc(N)nc2c1ncn2[C@@H]1O[C@H](COP(=O)(N[C@@H](C)C(=O)OC(C)C)Oc2ccccc2)[C@@H](O)[C@@]1(C)F (stereo not given in full)	> 100 µM	93 µM	59 µM	0.02 µM	> 100 µM	
CCCOc1nc(N)nc2c1ncn2[C@@H]1O[C@H](COP(=O)(N[C@@H](C)C(=O)OC)Oc2ccccc2)[C@@H](O)[C@@]1(C)F (stereo not given in full)	39 µM	17 µM	39 µM	0.0146 µM	45 µM	
CCCOc1nc(N)nc2c1ncn2[C@@H]1O[C@H](COP(=O)(N[C@@H](C)C(=O)OC(C)C)Oc2ccccc2)[C@@H](O)[C@@]1(C)F (stereo not given in full)	> 100 µM	44 µM	49 µM	0.033 µM	> 100 µM	
COC(=O)[C@H](C)NP(=O)(OC[C@H]1O[C@@H](n2cnc3c(N4CCC4)nc(N)nc32)[C@](C)(F)[C@@H]1O)Oc1ccccc1 (stereo not given in full)	> 100 µM	75 µM	> 100 µM	0.09 µM	> 100 µM	Activity (HepG2 [7]): Non-toxic; half-life [8]: 0.4 h; Activity (CCRF-CEM [9]): Non-toxic; half-life [10]: 11.6 h; Activity (Hepatocyte): 0.05 mM; Activity (CCRF-CEM [11]): Non-toxic; Activity (Huh-7): 0.16 mM; EC90 (Hepatitis C virus [6]; Hepatitis C virus, Huh-7): 0.04 µM; Activity (HepG2 [12]): Non-toxic; half-life [13]: > 20 h; half-life [14]: > 20 h
CC(C)OC(=O)[C@H](C)NP(=O)(OC[C@H]1O[C@@H](n2cnc3c(N4CCC4)nc(N)nc32)[C@](C)(F)[C@@H]1O)Oc1ccccc1 (stereo not given in full)	74 µM	74 µM	53 µM	0.019 µM	100 µM	
COC(=O)[C@H](C)NP(=O)(OC[C@H]1O[C@@H](n2cnc3c(NC4CC4)nc(N)nc32)[C@](C)(F)[C@@H]1O)Oc1ccccc1 (stereo not given in full)	> 100 µM	34 µM	> 100 µM	0.0082 µM	> 100 µM	
CC(C)OC(=O)[C@H](C)NP(=O)(OC[C@H]1O[C@@H](n2cnc3c(NC4CC4)nc(N)nc32)[C@](C)(F)[C@@H]1O)Oc1ccccc1 (stereo not given in full)	98 µM	> 100 µM	96 µM	0.0088 µM	> 100 µM	
COc1nc(N)nc2c1ncn2[C@@H]1O[C@H](CO[P@](=O)(N[C@@H](C)C(=O)OC(C)C)Oc2ccccc2)[C@@H](O)[C@@]1(C)F				0.027 µM		Activity (Hepatocyte): 0.14 mM; Activity (Huh-7): 0.07 mM; EC90 (Hepatitis C virus [6]; Hepatitis C virus, Huh-7): 0.038 µM
COc1nc(N)nc2c1ncn2[C@@H]1O[C@H](COP(=O)(N[C@@H](C)C(=O)OC(C)C)Oc2ccccc2)[C@@H](O)[C@@]1(C)F (stereo in doubt; 23)	> 100 µM	> 100 µM	> 100 µM		62 µM	Activity (HepG2 [7]): Non-toxic; half-life [8]: 0.2 h; Activity (CCRF-CEM [9]): Non-toxic; half-life [10]: > 24 h; Activity (Hepatocyte): 0.12 mM; EC90 (Hepatitis C virus [4]): 0.02 µM; Activity (CCRF-CEM [11]): Non-toxic; Activity (Huh-7): 0.12 mM; EC90 (Hepatitis C virus [6]): 0.024 µM; Activity (HepG2 [12]): Non-toxic; half-life [13]: > 20 h; half-life [14]: 14 h
COc1nc(N)nc2c1ncn2[C@@H]1O[C@H](COP(=O)(N[C@@H](C)C(=O)OC(C)C)Oc2ccccc2)[C@@H](O)[C@@]1(C)F (stereo in doubt; 23b)						Activity (Hepatocyte): 0.44 mM; EC90 (Hepatitis C virus [4]): 0.008 µM; Activity (Huh-7): 0.17 mM; EC90 (Hepatitis C virus [6]): 0.011 µM
